Experimental data published in patent US20100267561A1, “HERBICIDAL PYRIDAZINONE DERIVATIVES” (priority 2007, published 2010).

How the values were obtained:
Assay type in all cases: in vivo
[1] = tested on: blackgrass (Alopecurus myosuroides); experiment: Test B pre-/postemergence plant response
Procedure, shortened: (§1)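 Seeds were sown and sprayed preemergence, while plants at 2 to 18 cm (1- to 4-leaf stage) got postemergence sprays. Compounds were formulated in a non-phytotoxic solvent mixture with surfactant. After 13 to 15 days in a greenhouse, injury was rated visually against untreated controls, 0 (no effect) to 100 (complete control).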

[2] = tested on: catchweed bedstraw (Galium aparine); experiment: Test B pre-/postemergence plant response; details: Preemergence
Procedure, shortened: as §1

[3] = tested on: cocklebur (Xanthium strumarium); experiment: Test B pre-/postemergence plant response
Procedure, shortened: as §1

[4] = tested on: common (oilseed) sunflower (Helianthus annuus); experiment: Test B pre-/postemergence plant response; details: Preemergence
Procedure, shortened: as §1

[5] = tested on: common ragweed (Ambrosia elation); experiment: Test B pre-/postemergence plant response
Procedure, shortened: as §1

[6] = tested on: giant foxtail (Setaria faberii); experiment: Test B pre-/postemergence plant response
Procedure, shortened: as §1

[7] = tested on: goosegrass (Eleusine indica); experiment: Test B pre-/postemergence plant response
Procedure, shortened: as §1

[8] = tested on: johnsongrass (Sorghum halepense); experiment: Test B pre-/postemergence plant response
Procedure, shortened: as §1

[9] = tested on: lambsquarters (Chenopodium album); experiment: Test B pre-/postemergence plant response
Procedure, shortened: as §1

[10] = tested on: large crabgrass (Digitaria sanguinalis); experiment: Test B pre-/postemergence plant response
Procedure, shortened: as §1

[11] = tested on: wheat (Triticum aestivum); experiment: Test B pre-/postemergence plant response
Procedure, shortened: as §1

wild oat (Avena fatua) = experiment: Test B pre-/postemergence plant response
Procedure, shortened: as §1

[12] = tested on: yellow nutsedge (Cyperus esculentus); experiment: Test B pre-/postemergence plant response
Procedure, shortened: as §1

[13] = tested on: windgrass (Apera spica-venti); experiment: Test B postemergence plant response; details: Postemergence
Procedure, shortened: (§2)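 Following treatment of plants 2 to 18 cm high after emergence, pots were held under glass for 13 to 15 days; efficacy was then graded visually, 100 denoting complete control and a dash no test result.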

[14] = tested on: winter barley (Hordeum vulgare); experiment: Test B postemergence plant response; details: Postemergence
Procedure, shortened: as §2

[15] = Postemergence, 31 g ai/ha, scale 0 to 100, 0 no effect, 100 complete control
[16] = Postemergence, 62 g ai/ha, scale 0 to 100
[17] = Postemergence, 125 g ai/ha, scale 0 to 100
[18] = Postemergence, 250 g ai/ha, scale 0 to 100
[19] = Preemergence, 31 g ai/ha, 0 to 100 scale, 0 no effect, 100 complete control
[20] = Preemergence, 62 g ai/ha, scale 0 to 100
[21] = Preemergence, 125 g ai/ha, scale 0 to 100
[22] = 31 g ai/ha, 0 to 100 scale, 0 no effect, 100 complete control
[23] = Preemergence, 250 g ai/ha, scale 0 to 100
[24] = 31 g ai/ha, scale 0 to 100, 0 no effect, 100 complete control

## Cc1cc(-c2ccc(Br)cc2)nn1-c1c(O)cnn(C)c1=O [Compound 4]
[1]; 250 g ai/ha, preemergence, 0-100 scale
  Blackgrass plant response rating: 100
[1]; [15]
  Plant response rating, Blackgrass: 90
[1]; [16]
  Plant response rating, Blackgrass: 100
[1]; [17]
  Plant response rating, Blackgrass: 100
[1]; [18]
  Plant response rating, Blackgrass: 100
[1]; [19]
  Plant response rating, Blackgrass: 100
[1]; [20]
  Plant response rating, Blackgrass: 100
[1]; [21]
  Plant response rating, Blackgrass: 100
[2]; [22]
  Plant response rating, Galium: 0
[2]; 62 g ai/ha, scale 0 to 100
  Plant response rating, Galium: 0
[2]; 125 g ai/ha, scale 0 to 100
  Plant response rating, Galium: 85
[2]; 250 g ai/ha, scale 0 to 100
  Plant response rating, Galium: 90
[3]; [15]
  Plant response rating, Cocklebur: 0
[3]; [16]
  Plant response rating, Cocklebur: 0
[3]; [17]
  Plant response rating, Cocklebur: 0
[3]; [18]
  Plant response rating, Cocklebur: 0
[3]; [19]
  Plant response rating, Cocklebur: 0
[3]; [20]
  Plant response rating, Cocklebur: 0
[3]; [21]
  Plant response rating, Cocklebur: 0
[3]; [23]
  Plant response rating, Cocklebur: 30
[4]; [22]
  Plant response rating, Sunflower: 0
[4]; 62 g ai/ha, scale 0 to 100
  Plant response rating, Sunflower: 0
[4]; 125 g ai/ha, scale 0 to 100
  Plant response rating, Sunflower: 0
[4]; 250 g ai/ha, scale 0 to 100
  Plant response rating, Sunflower: 70
[5]; [15]
  Plant response rating, Ragweed: 0
[5]; [16]
  Plant response rating, Ragweed: 0
[5]; [17]
  Plant response rating, Ragweed: 50
[5]; [18]
  Plant response rating, Ragweed: 80
[5]; [19]
  Plant response rating, Ragweed: 0
[5]; [20]
  Plant response rating, Ragweed: 0
[5]; [21]
  Plant response rating, Ragweed: 0
[5]; [23]
  Plant response rating, Ragweed: 0
[6]; [15]
  Plant response rating, Foxtail, Giant: 100
[6]; [16]
  Plant response rating, Foxtail, Giant: 100
[6]; [17]
  Plant response rating, Foxtail, Giant: 100
[6]; [18]
  Plant response rating, Foxtail, Giant: 100
[6]; [19]
  Plant response rating, Foxtail, Giant: 100
[6]; [20]
  Plant response rating, Foxtail, Giant: 100
[6]; [21]
  Plant response rating, Foxtail, Giant: 100
[6]; [23]
  Plant response rating, Foxtail, Giant: 100
[7]; [15]
  Plant response rating, Goosegrass: 95
[7]; [16]
  Plant response rating, Goosegrass: 100
[7]; [17]
  Plant response rating, Goosegrass: 100
[7]; [18]
  Plant response rating, Goosegrass: 100
[7]; [19]
  Plant response rating, Goosegrass: 85
[7]; [20]
  Plant response rating, Goosegrass: 100
[7]; [21]
  Plant response rating, Goosegrass: 100
[7]; [23]
  Plant response rating, Goosegrass: 100
[8]; [15]
  Plant response rating, Johnsongrass: 80
[8]; [17]
  Plant response rating, Johnsongrass: 100
[8]; [19]
  Plant response rating, Johnsongrass: 0
[8]; [20]
  Plant response rating, Johnsongrass: 30
[8]; [21]
  Plant response rating, Johnsongrass: 100
[8]; [23]
  Plant response rating, Johnsongrass: 100
[9]; [15]
  Plant response rating, Lambsquarters: 0
[9]; [16]
  Plant response rating, Lambsquarters: 0
[9]; [17]
  Plant response rating, Lambsquarters: 60
[9]; [18]
  Plant response rating, Lambsquarters: 80
[9]; [20]
  Plant response rating, Lambsquarters: 85
[9]; [21]
  Plant response rating, Lambsquarters: 85
[9]; [23]
  Plant response rating, Lambsquarters: 90
[10]; [15]
  Plant response rating, Crabgrass, Large: 100
[10]; [16]
  Plant response rating, Crabgrass, Large: 100
[10]; [17]
  Plant response rating, Crabgrass, Large: 100
[10]; [18]
  Plant response rating, Crabgrass, Large: 100
[10]; [19]
  Plant response rating, Crabgrass, Large: 100
[10]; [20]
  Plant response rating, Crabgrass, Large: 100
[10]; [21]
  Plant response rating, Crabgrass, Large: 100
[10]; [23]
  Plant response rating, Crabgrass, Large: 100
[11]; [15]
  Plant response rating, Wheat: 90
[11]; [16]
  Plant response rating, Wheat: 100
[11]; [17]
  Plant response rating, Wheat: 100
[11]; [18]
  Plant response rating, Wheat: 100
[11]; [19]
  Plant response rating, Wheat: 60
[11]; [20]
  Plant response rating, Wheat: 95
[11]; [21]
  Plant response rating, Wheat: 100
[11]; [23]
  Plant response rating, Wheat: 100
Wild oat (Avena fatua); [15]
  Plant response rating, Oat, Wild: 98
Wild oat (Avena fatua); [16]
  Plant response rating, Oat, Wild: 100
Wild oat (Avena fatua); [17]
  Plant response rating, Oat, Wild: 100
Wild oat (Avena fatua); [18]
  Plant response rating, Oat, Wild: 100
Wild oat (Avena fatua); [19]
  Plant response rating, Oat, Wild: 65
Wild oat (Avena fatua); [20]
  Plant response rating, Oat, Wild: 70
Wild oat (Avena fatua); [21]
  Plant response rating, Oat, Wild: 85
Wild oat (Avena fatua); [23]
  Plant response rating, Oat, Wild: 95
[12]; [15]
  Plant response rating, Nutsedge, Yellow: 0
[12]; [16]
  Plant response rating, Nutsedge, Yellow: 0
[12]; [17]
  Plant response rating, Nutsedge, Yellow: 0
[12]; [18]
  Plant response rating, Nutsedge, Yellow: 0
[12]; [19]
  Plant response rating, Nutsedge, Yellow: 0
[12]; [20]
  Plant response rating, Nutsedge, Yellow: 0
[12]; [21]
  Plant response rating, Nutsedge, Yellow: 0
[13]; [24]
  Plant response rating, Windgrass: 90
[13]; 62 g ai/ha, scale 0 to 100
  Plant response rating, Windgrass: 100
[13]; 125 g ai/ha, scale 0 to 100
  Plant response rating, Windgrass: 100
[13]; 250 g ai/ha, scale 0 to 100
  Plant response rating, Windgrass: 100
[14]; [24]
  Plant response rating, Barley: 0
[14]; 62 g ai/ha, scale 0 to 100
  Plant response rating, Barley: 10
[14]; 125 g ai/ha, scale 0 to 100
  Plant response rating, Barley: 90
[14]; 250 g ai/ha, scale 0 to 100
  Plant response rating, Barley: 95
